Assays:
Daudi = test: Daudi cell line Proliferation assay; type: functional, Homo sapiens; settings: time 3 day
[1] = biological target: Serine/threonine-protein kinase N1 (Homo sapiens) (UniProt Q16512); test: PRK1(h) Eurofins kinase panel; settings: Compound concentration 1.0 uM
[2] = biological target: G protein-coupled receptor kinase 6 (Homo sapiens) (UniProt P43250); test: GRK6(h) Eurofins kinase panel; settings: Compound concentration 1.0 uM
[3] = biological target: T1, Tyrosine-protein kinase TXK (Homo sapiens) (UniProt P42681); test: Txk(h) Eurofins kinase panel; settings: Compound concentration 1.0 uM
T1 sequence (whole entry): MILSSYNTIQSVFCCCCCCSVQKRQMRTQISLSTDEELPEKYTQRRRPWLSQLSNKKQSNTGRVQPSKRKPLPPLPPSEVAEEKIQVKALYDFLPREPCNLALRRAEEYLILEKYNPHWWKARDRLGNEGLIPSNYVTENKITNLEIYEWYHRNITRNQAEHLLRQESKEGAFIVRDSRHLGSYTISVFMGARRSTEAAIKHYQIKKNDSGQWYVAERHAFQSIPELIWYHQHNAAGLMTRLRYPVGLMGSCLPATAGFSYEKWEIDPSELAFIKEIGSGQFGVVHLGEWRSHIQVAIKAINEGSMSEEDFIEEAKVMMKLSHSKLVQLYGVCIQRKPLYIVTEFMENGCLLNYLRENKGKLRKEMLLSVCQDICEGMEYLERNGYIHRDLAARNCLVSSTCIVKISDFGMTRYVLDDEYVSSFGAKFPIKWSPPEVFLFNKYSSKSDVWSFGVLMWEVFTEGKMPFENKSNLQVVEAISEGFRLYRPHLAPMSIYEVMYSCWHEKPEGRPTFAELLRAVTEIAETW

[4] = biological target: 5'-AMP-activated protein kinase catalytic subunit alpha-2 (Homo sapiens, UniProt P54646); settings: Compound concentration 1.0 uM
5'-AMP-activated protein kinase catalytic subunit alpha-2, sequence (P54646 whole entry, looked up): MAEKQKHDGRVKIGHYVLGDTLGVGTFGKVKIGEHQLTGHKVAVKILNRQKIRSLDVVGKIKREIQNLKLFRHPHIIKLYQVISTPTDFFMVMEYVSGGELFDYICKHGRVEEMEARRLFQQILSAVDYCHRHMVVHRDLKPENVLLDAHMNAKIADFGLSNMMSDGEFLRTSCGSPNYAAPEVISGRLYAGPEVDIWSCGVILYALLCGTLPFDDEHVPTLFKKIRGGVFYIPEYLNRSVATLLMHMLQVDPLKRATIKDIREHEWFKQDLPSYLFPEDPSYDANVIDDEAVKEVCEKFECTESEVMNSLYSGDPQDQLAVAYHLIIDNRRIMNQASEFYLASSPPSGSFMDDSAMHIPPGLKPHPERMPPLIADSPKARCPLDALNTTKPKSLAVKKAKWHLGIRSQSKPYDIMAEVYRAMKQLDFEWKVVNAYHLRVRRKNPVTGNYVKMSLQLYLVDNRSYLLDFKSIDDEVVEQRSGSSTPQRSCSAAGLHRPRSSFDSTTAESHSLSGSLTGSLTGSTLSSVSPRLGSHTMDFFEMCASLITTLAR

[5] = biological target: 5'-AMP-activated protein kinase catalytic subunit alpha-1 (Homo sapiens, UniProt Q13131); settings: Compound concentration 1.0 uM
5'-AMP-activated protein kinase catalytic subunit alpha-1, sequence (Q13131 whole entry, looked up): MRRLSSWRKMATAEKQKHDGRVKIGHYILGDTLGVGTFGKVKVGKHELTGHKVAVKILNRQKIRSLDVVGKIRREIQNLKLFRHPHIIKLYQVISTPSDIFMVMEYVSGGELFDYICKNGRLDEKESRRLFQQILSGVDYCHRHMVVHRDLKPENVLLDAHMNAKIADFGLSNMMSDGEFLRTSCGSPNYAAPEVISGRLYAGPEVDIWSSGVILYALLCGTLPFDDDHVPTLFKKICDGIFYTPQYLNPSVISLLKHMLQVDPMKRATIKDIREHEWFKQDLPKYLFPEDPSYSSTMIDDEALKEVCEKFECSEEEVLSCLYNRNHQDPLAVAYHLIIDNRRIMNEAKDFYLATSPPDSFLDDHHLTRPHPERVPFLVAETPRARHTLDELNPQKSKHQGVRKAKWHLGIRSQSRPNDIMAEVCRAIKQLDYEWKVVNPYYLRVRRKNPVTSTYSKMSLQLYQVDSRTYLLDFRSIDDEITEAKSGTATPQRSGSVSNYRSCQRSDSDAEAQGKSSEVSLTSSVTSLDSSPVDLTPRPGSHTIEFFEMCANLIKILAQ

[6] = biological target: Dual specificity protein kinase CLK2 (Homo sapiens) (UniProt P49760); test: CLK2(h) Eurofins kinase panel; settings: Compound concentration 1.0 uM
[7] = biological target: MAPK/MAK/MRK overlapping kinase (Homo sapiens) (UniProt Q9UQ07); test: MOK(h) Eurofins kinase panel; settings: Compound concentration 1.0 uM
MAPK/MAK/MRK overlapping kinase (Homo sapiens), sequence (Q9UQ07 whole entry): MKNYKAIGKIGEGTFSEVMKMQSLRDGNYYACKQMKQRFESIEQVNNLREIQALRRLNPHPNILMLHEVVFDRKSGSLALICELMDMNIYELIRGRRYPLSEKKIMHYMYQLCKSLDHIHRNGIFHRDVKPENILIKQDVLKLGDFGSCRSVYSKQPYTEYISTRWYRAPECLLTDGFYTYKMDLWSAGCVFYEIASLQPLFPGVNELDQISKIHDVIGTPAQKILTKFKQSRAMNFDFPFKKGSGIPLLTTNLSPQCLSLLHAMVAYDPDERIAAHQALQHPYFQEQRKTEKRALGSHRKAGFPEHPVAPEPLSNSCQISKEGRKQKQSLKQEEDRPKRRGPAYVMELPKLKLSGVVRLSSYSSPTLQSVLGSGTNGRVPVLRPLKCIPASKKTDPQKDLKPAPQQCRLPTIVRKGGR

[8] = biological target: Serine/threonine-protein kinase mTOR (Homo sapiens) (UniProt P42345); test: mTOR(h) Eurofins kinase panel; settings: Compound concentration 1.0 uM
[9] = biological target: Tyrosine-protein kinase Blk (Homo sapiens) (UniProt P51451); test: Blk(h) Eurofins kinase panel; settings: Compound concentration 1.0 uM
Tyrosine-protein kinase Blk (Homo sapiens), sequence (P51451 2-505 limits assumed): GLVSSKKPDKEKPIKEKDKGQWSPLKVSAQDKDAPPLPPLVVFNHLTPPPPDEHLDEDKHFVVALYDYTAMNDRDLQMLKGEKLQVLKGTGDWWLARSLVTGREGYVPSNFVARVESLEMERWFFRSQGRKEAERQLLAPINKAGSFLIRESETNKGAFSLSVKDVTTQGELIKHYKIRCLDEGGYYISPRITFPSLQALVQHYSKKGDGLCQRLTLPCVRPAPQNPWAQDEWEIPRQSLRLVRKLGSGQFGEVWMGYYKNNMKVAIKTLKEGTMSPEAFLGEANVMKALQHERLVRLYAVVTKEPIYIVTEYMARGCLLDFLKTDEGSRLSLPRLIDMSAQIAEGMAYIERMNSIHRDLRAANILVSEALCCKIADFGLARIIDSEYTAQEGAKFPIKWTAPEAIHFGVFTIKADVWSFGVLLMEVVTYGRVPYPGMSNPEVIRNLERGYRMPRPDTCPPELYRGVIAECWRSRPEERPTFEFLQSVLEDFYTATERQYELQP

[10] = biological target: Mitogen-activated protein kinase 14 (Homo sapiens) (UniProt Q16539); test: SAPK2a(h) Eurofins kinase panel; settings: Compound concentration 1.0 uM
Mitogen-activated protein kinase 14 (Homo sapiens), sequence (Q16539 whole entry): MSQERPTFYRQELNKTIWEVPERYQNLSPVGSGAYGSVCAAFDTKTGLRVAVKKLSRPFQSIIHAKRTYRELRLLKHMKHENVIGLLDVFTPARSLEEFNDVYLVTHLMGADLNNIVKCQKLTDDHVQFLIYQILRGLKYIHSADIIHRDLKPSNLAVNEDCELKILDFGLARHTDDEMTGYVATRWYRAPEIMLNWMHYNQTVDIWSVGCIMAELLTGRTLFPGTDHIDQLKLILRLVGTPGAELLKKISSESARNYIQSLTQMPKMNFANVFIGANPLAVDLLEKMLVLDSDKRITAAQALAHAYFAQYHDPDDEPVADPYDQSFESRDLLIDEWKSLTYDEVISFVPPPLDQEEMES

[11] = biological target: T2, Myosin-IIIb (Homo sapiens) (UniProt Q8WXR4); test: MYO3B(h) Eurofins kinase panel; settings: Compound concentration 1.0 uM
T2 sequence (whole entry): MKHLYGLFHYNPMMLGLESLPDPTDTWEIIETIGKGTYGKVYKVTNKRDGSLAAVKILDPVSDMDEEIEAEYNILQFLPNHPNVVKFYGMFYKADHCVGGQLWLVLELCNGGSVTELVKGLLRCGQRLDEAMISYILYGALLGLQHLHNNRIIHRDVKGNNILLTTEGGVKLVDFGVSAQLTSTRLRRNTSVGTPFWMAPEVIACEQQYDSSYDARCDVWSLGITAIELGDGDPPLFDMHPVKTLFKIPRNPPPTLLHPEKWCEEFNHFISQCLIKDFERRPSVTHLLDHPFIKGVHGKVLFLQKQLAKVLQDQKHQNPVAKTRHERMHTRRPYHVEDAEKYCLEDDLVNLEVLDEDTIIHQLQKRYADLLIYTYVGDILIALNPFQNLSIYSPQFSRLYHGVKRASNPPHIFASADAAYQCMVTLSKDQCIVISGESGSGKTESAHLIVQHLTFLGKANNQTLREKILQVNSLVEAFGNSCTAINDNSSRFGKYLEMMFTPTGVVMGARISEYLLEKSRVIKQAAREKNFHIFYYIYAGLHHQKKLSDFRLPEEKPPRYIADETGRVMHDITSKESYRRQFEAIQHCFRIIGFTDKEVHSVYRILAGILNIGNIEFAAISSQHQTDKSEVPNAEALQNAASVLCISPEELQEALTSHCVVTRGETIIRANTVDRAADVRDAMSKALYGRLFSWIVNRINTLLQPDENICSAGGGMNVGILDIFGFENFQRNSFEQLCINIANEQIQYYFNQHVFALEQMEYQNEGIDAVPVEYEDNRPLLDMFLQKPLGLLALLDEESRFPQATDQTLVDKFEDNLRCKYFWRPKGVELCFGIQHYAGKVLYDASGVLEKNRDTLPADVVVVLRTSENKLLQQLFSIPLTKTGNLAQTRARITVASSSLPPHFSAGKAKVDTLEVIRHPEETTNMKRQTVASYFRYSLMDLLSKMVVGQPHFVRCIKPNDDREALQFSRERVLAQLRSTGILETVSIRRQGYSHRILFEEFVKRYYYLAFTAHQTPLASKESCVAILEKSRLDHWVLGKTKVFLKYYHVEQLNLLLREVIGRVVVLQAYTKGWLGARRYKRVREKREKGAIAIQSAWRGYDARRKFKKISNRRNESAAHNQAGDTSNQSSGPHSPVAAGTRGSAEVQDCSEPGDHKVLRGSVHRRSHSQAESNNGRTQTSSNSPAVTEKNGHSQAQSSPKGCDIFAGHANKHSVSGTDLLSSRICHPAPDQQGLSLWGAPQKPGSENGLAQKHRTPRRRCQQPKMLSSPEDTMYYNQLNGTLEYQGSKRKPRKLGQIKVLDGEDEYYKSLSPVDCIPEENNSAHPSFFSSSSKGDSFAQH

[12] = biological target: Dual specificity protein kinase CLK3 (Homo sapiens) (UniProt P49761); test: CLK3(h) Eurofins kinase panel; settings: Compound concentration 1.0 uM
Dual specificity protein kinase CLK3 (Homo sapiens), sequence (P49761 whole entry, looked up): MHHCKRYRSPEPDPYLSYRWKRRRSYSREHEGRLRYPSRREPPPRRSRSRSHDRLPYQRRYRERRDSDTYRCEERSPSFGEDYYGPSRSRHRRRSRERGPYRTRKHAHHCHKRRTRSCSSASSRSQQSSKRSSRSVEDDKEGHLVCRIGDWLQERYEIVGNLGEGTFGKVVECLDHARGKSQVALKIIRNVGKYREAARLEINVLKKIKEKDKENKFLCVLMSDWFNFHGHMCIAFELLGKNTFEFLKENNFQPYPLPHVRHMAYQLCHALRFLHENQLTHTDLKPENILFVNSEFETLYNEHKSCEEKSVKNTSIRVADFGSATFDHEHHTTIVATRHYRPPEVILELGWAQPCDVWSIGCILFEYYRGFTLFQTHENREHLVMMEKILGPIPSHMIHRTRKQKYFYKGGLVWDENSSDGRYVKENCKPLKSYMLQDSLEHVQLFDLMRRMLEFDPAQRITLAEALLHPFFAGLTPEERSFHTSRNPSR

[13] = biological target: Phosphatidylinositol 4-phosphate 5-kinase type-1 alpha (Homo sapiens) (UniProt Q99755); test: PIP5K1a(h) Eurofins kinase panel; settings: Compound concentration 1.0 uM
Phosphatidylinositol 4-phosphate 5-kinase type-1 alpha (Homo sapiens), sequence (Q99755 whole entry): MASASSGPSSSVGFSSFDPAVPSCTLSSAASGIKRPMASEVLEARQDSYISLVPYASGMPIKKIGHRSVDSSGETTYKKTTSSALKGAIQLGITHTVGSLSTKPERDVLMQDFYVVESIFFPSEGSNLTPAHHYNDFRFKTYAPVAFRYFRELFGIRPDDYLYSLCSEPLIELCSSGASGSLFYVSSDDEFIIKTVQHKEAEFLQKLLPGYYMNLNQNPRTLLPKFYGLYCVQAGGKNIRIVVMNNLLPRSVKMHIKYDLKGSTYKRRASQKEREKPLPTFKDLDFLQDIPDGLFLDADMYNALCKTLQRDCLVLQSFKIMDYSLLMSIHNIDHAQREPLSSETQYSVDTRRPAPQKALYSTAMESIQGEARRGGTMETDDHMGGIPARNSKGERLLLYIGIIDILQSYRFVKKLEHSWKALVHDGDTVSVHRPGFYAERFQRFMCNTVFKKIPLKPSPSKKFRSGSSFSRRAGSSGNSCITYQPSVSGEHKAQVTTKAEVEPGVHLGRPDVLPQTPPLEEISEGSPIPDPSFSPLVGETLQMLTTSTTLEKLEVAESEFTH

[14] = biological target: T3, Serine/threonine-protein kinase 4 (Homo sapiens) (UniProt Q13043); test: MST1(h) Eurofins kinase panel; settings: Compound concentration 1.0 uM
T3 sequence (whole entry): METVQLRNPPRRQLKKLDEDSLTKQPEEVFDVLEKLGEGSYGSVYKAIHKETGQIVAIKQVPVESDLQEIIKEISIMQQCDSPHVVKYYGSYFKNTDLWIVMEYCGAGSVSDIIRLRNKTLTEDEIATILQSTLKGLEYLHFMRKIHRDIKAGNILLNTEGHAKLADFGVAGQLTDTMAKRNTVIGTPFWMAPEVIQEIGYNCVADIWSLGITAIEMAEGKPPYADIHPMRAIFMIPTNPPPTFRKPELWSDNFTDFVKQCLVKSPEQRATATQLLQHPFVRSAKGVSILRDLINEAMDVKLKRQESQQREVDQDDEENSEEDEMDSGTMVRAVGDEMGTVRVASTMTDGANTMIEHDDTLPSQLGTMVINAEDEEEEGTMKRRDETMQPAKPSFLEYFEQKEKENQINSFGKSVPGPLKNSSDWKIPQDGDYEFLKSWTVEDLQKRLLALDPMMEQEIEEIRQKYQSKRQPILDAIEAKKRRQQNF

Serine/threonine-protein kinase N1 (Homo sapiens), sequence (Q16512 2-942 limits assumed): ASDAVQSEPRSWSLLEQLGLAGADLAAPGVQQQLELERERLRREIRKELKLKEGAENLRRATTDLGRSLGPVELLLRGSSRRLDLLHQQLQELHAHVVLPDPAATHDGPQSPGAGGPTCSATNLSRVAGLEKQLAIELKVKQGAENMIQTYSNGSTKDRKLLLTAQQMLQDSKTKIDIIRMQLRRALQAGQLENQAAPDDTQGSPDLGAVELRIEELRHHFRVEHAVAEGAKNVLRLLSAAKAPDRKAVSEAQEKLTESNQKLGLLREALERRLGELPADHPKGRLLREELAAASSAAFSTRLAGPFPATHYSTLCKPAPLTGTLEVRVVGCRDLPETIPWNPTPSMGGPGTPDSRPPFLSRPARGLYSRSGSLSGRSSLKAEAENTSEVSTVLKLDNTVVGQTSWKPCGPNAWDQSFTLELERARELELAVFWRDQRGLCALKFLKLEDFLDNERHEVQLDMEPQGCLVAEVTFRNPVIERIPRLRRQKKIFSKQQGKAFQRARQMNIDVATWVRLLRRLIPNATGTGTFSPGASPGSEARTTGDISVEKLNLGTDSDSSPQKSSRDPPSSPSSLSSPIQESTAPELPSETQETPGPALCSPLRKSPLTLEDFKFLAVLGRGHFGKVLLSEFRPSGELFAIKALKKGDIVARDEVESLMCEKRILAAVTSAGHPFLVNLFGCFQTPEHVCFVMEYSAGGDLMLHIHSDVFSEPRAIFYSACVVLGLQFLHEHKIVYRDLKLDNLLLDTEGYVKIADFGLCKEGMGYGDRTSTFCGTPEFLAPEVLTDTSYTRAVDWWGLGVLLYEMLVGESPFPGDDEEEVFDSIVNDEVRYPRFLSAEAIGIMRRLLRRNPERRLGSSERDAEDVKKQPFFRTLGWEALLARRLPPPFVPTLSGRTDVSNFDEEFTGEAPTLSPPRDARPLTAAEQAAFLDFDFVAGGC
G protein-coupled receptor kinase 6 (Homo sapiens), sequence (P43250 whole entry, looked up): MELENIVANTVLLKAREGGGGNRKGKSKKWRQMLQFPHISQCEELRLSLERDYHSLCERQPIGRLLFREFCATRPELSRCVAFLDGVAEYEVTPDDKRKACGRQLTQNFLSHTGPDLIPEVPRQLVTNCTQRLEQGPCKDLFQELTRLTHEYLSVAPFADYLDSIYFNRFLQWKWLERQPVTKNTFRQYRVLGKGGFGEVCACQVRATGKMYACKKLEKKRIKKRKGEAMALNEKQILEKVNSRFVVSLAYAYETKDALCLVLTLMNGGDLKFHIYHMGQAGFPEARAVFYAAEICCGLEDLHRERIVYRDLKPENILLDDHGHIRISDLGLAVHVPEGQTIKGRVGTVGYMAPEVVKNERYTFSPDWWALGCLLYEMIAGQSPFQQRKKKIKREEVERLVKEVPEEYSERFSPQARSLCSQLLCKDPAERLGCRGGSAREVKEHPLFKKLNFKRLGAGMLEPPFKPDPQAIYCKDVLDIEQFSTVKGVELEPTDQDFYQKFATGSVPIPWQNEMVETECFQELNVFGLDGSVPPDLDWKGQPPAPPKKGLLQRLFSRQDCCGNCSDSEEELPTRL

CCc1ccccc1C(=O)Nc1n[nH]c2c(C)c(F)c(C3C(C#N)=C(C)N(C)C(C)=C3C#N)cc12 [BAY-3827]
22.9 µM: Cell Proliferation IC50 (Daudi)
inactive: % residual kinase activity [1] 74% | % residual kinase activity [2] 96% | % residual kinase activity [3] 111% | % residual kinase activity [4] 0% | % residual kinase activity [5] 1% | % residual kinase activity [6] 93% | % residual kinase activity [7] 115% | % residual kinase activity [8] 116% | % residual kinase activity [9] 111% | % residual kinase activity [10] 101% | % residual kinase activity [11] 24% | % residual kinase activity [12] 109% | % residual kinase activity [13] 100% | % residual kinase activity [14] 73%
